The text below walks through data of patent US20130136778A1, “PTEROSTILBENE (PTER) FOR USE IN THE PREVENTION AND/OR TREATMENT OF SKIN DISEASES, DAMAGES OR INJURIES” (GREEN MOLECULAR, S.L., priority 2009, published 2013).

Data set [1] concerns SKH-1 mice. The data set is described as follows: Anatomopathological study of the skin after chronic exposure to UV-B. In kind it is in vivo. On the set-up: key to Stroma: Parakeratosis: (+) light; (+++) serious. As to conditions: after 30 weeks chronic UV-B 180 mJ/cm2. The method, then: Histochemical techniques were used to study the skin tissues of the different procedures, at a microscopic level.
The tissues were fixed in 4% formaldehyde in PBS over 24 h at 22° C. After the tissues were fixed, they had to be dehydrated in large amounts of ethanol and placed in a hydrophobic and xylene mixture to allow the paraffin to penetrate the tissues to provide sufficient consistency for slicing them thinly in a microtome.
The samples in paraffin were processed with the microtome obtaining slices of about 5-10 μm. The samples were spread over a drop of gelatin at 37° C. and were collected in gelatinized slides.
The protocol used for staining the samples was: • 1. Incubation with Mayer's Hematoxylin for 10-15 minutes. • 2. Wash under running water until bluish. • 3. Incubate with Eosin (1%) for 2-4 minutes. • 4. Eliminate the remaining eosin in ethanol 70° • 5. Dehydration. • 6. Rinse with xylol for 3 minutes. • 7. Let the trays dry out on the stove at 37°.
In relation to the histopathological exam of the tumors induced by chronic irradiation to UV in the SKH1 mice, it was confirmed that the treatment with UV-B produced a strong acanthosis due primarily to the inflammatory process; this gave way to the first signs of tumors, mostly of carcinoma type and not melanoma.
Both the reference compounds and the ones subject of this study (10 μmoles/mouse of polyphenols, or 200 μl of each photoprotector) were applied to the back of the mice for 20 minutes prior to their exposure to UV-B. Medium of groups of 20 mice. Every parameter was measured according to the degree of seriousness (+) light-(+++) serious.

Data set [2] relates to SKH-1 mice. The data set is described as follows: Skinfold thickness (edema) after acute UV-B exposure of 360 mJ/cm2. Type of data set: in vivo. The settings on record: FIG. 1. How it is done:
UVB Acute exposure protocols were used: Mice underwent a single exposure of 360 mJ/cm2. The study was conducted at 24 hours after exposure. This protocol was used to evaluate the photoprotective effect of the compounds studied. With the same acute-phase protocol mice from all groups were irradiated. Subsequently mice remained in the animal storage area for a week to see the evolution of the inflammatory response and edema. For the UVB exposure studies (chronic or acute) a topical administration to the back of the mouse was conducted. The commercial sunscreens were applied directly on the mouse. The polyphenols in the study were administered in a liposomal preparation diluted 1:1 with Carbopol polymer which will be the vehicle for these liposomes. Each polyphenol dose administered was 10 μmol/mouse, as free acid. • 1. Edema formation: skinfold thickness was determined with a caliper 24 hours after the first exposure. • 2. Study of the thickness of the epidermis after exposure to acute irradiation (360 mj/cm^2 24 h hours and 7 days after irradiation). • 3. Histological studies: measuring, in the pictures obtained from histological sections, the thickness of the epidermis. With the purpose of assessing the effects of the photoprotective compounds studied, female mice SKH-1 of between 6-8 weeks old were subjected to a single exposure of 360 mJ/cm. For the ultraviolet B (UVB) irradiation exposure, a camera specifically prepared, available at our laboratory was used (Crosslinker; Bio-Link BLX 254) equipped with 5 tubes that produce 80% of the UVB radiation, with a maximum emission of 312 nm. The two protocols of UV-B exposure used were: • Intense exposure after a single exposure of 360 mJ/cm^2. The study was carried out 24 hours after the exposure. This protocol was used to assess the photoprotective effects of the compounds studied. • Intense exposure after a single exposure of 360 mJ/cm^2. The study was carried out 1 week after the exposure. The mice were kept in the shed for a week to observe the evolution of the inflammatory and edematous response. As reference, several commercial photoprotective products were used ([…] Heliocare). The reference compounds as well as the products object of this study, were applied on the back of the mice for 20 minutes after or 20 minutes before the irradiation with UV-B, to determine if the reaction observed was due to an effect of the solar filter or not. […] The skinfold was measured by making a fold on the skin from the back of the mice, from the axillae to the hips; the fold was measured with a vernier caliper. The increase in the fold was calculated by the difference between the initial point, before the effects of the reaction, and the thickness in each point.

For data set [3], the system named is SKH-1 mice. The experiment in a line: Thickness of the epidermis after acute UV-B exposure of 360 mJ/cm2. The settings on record: FIG. 2, versus group treated only with UV-B. In kind it is in vivo. The method, then:
UVB Acute exposure protocols were used: Mice underwent a single exposure of 360 mJ/cm2. The study was conducted at 24 hours after exposure. This protocol was used to evaluate the photoprotective effect of the compounds studied. With the same acute-phase protocol mice from all groups were irradiated. Subsequently mice remained in the animal storage area for a week to see the evolution of the inflammatory response and edema. • 1. Edema formation: skinfold thickness was determined with a caliper 24 hours after the first exposure. • 2. Study of the thickness of the epidermis after exposure to acute irradiation (360 mj/cm^2 24 h hours and 7 days after irradiation). • 3. Histological studies: measuring, in the pictures obtained from histological sections, the thickness of the epidermis. For studies of acute exposure skin samples were taken from the back of the mouse. These samples were fixed with 4% paraformaldehyde (24 hours) and embedded in paraffin. Following cutting the samples were stained with hematoxylin and eosin. The two protocols of UV-B exposure used were: • Intense exposure after a single exposure of 360 mJ/cm^2. The study was carried out 24 hours after the exposure. This protocol was used to assess the photoprotective effects of the compounds studied. • Intense exposure after a single exposure of 360 mJ/cm^2. The study was carried out 1 week after the exposure. The mice were kept in the shed for a week to observe the evolution of the inflammatory and edematous response. At 24 hours or 1 week after the administration of the different treatments the mice were sacrificed and their skin fixed with 4% PFA. To measure the thickness of the epidermis to evaluate possible hyperplasia, a computer program was used, Image J, calibrated with the assistance of a Neubauer camera which allowed the measuring of the epidermis. Results obtained were statistically analyzed by ANOVA and contrasted by the Tukey test and grouped according to the significant differences. […] Therefore PTER alone could be used efficiently in the prevention of skin diseases, injuries or damages induced by ultraviolet B radiation. The evaluation of skin thickness was carried out by using computer software (IMAGE J). Results obtained by ANOVA were contrasted by the Tukey test and grouped according to the significant differences. […] Therefore PTER separately could be used efficiently in the prevention of skin diseases, damages or injuries induced by ultraviolet B radiation.

Data set [4] can be described thus: Absorption spectrum of polyphenols (mechanical filter capacity). In kind it is physicochemical. The settings on record: 1 mM in pure ethanol, 200-800 nm. The method, then:
A solution of 1 mM of each polyphenol was prepared (PTER, Resveratrol and QUER) in absolute ethanol (HPLS quality; Quima) and the absorption spectrum was studied between 200 and 800 nm using a Multiskan Spectrum (ThermoScientific).
With the purpose of studying the capacity of the polyphenols used in this study, we decided to evaluate the absorption of light throughout the ultraviolet light spectrum as shown in FIG. 13.

Data set [5] concerns SKH-1 mice. The experiment in a line: Experimental psoriasis induced by TPA. Type of data set: in vivo.
Description: For the induction of psoriasis, the agent “12-O-tetradecanoylphorbol-13 acetate” (TPA) was used.
Since our objective was to assess the progress of the lesions caused by psoriasis in combination with the use of polyphenols, a model of continuous exposure and a weaker concentration of TPA were used, on a daily dose of 2 nmoles of TPA over a period of a week, which allowed us to observe the progress of the psoriasis.
The induction was performed with 2 nmol TPA/mouse on an area of 1 cm^2, applying 10 μL of the 200 μM solution in acetone. This application protocol was carried out taking into account that when applying 20 μL as stated in the model, the volume increased considerably and it lost its concentration, therefore it was decided to make it more concentrated.
As a standard treatment, Dexamethasone was used, (from Sigma Solution 25 mM in acetone). The administration of the standard treatment and the products to be tested were given 30 minutes prior to the application of TPA, both beginning on the same day.
The groups, of 6 mice, for this assessment were: • Not treated. • Reference compound: 0.5 μmoles of Dexamethasone (200 μL of one solution 25 mM in acetone). • Medium: 200 μl of vacuumed Liposomes. • Resveratrol: 200 μL of Resveratrol Liposomes (10 μmol in total). • PTER: 200 μL of PTER Liposomes (10 μmol in total). • QUER: 200 μL of QUER Liposomes (10 μmol in total). • PTER+QUER:: 200 μL of PTER Liposomes+QUER (10 μmol in total).
At 24 hours (day 7) after the last administration of the different treatments and TPA, 3 mice from each group were sacrificed and their skin fixed with 4% PFA. The remaining mice were kept under the treatment with no exposure to TPA, to verify if the skin recovered faster on the treatment than on its own. At 24 hours (day 9) after the last administration of the different treatments the rest of the mice were sacrificed and their skin fixed with 4% PFA.
The flaky aspect of the skin was quantified in a scale of 0-3, being 0, nothing; 1, mild; 2, moderate; 3, severe.
The conditions of data set [6]: Asensi et al. 2002; cited from earlier work.
For data set [7], the system named is mice. The experiment in a line: Skinfold after continuous administration of treatments (side effects on skin). The settings on record: daily for 6 consecutive days; 10 μmoles/mouse polyphenols, 0.5 μmoles/mouse dexamethasone. Type of data set: in vivo. The method, then: FIG. 17. […] The application of the treatments 10 μmoles/mouse of polyphenols and 0.5 μmoles/mouse of dexamethasone was performed daily on a third of the back of the mice for 6 consecutive days. The skinfold was measured with the help of a vernier caliper.*p>0.001 with regards to the control. ANOVA followed by a Tukey test.
Prior to evaluating the results of different treatments on different models of dermatitis, the possible side effects of continues administration of polyphenols on the skin of the mice had to be evaluated as shown in FIG. 17. For this purpose, the dose for this daily evaluation was administered over 6 consecutive days.

For the compound `Oc1ccc(/C=C/c2cc(O)cc(O)c2)cc1` [RESV, 3,4′,5-trihydroxy-trans-stilbene, reference compound], the “Tumor (no/mouse × group)” value in data set [1] (Table 4, applied 20 min prior) came out at 3.8. Besides, the “Stroma: Parakeratosis” value in data set [1] (degree of seriousness) is given as “+”. For the same compound, the “formation of the edema (thickness of the skin) after severe UV-B exposure” value in data set [2] is listed as “the formation of the edema was reduced”. Further, the “thickness of the epidermis 24 hours after irradiation (before or after application)” value in data set [3] was “good photoprotection role but not as a repairer”. In addition, the “absorption of light, range of maximum absorption” value in data set [4] is “peaks or maximum absorption in the range of Ultraviolet B”. Also, the “increase of skinfold throughout the procedure” value in data set [5] (FIG. 23, 6 consecutive days, treatment 30 min prior to 2 nmol TPA) is given as “the evolution was similar with an increase in the formation of edema”. In data set [5] (FIG. 24, treatment 30 min prior to 2 nmol TPA), the “increase in the skinfold 24 hours after the first administration of TPA” value is “did not produce any effect on the increase of the skinfold in comparison to the TPA group”. In addition, the “histological analysis of the lesions” value in data set [5] (FIG. 28, hematoxylin-eosin, TPA daily over 7 days) is “resembles more the group treated with TPA, than the group with PTER”. Moreover, the bioavailability entry in data set [6] is given as “low bioavailability”.
Regarding `C[C@@H]1C[C@H]2[C@@H]3CCC4=CC(=O)C=C[C@]4(C)[C@@]3(F)[C@@H](O)C[C@]2(C)[C@@]1(O)C(=O)CO` [dexamethasone], the “skinfold / structure of the skin after continuous administration” value in data set [7] is listed as “did have side effects on the structure of the skin”.
